Measured values published in patent US5300498A, “6-piperazinyl-1H-pyrazolo[3,4-b]pyridine-3-carboxylic acids, esters, amides and related compounds” (Hoechst-Roussel Pharmaceuticals Incorporated, priority 1993, dated 1994).
Where a name gives a salt, the structure may show the parent alone.

These compounds were tested on serotonin (5HT) uptake (assay: [^3 H]-Serotonin Uptake in Rat Whole Brain and Hypothalamic Synaptosomes). Settings: 50 nM [^3 H]-5HT, 37° C., 5 minutes, read-out: Inhibition of Serotonin Uptake, IC50.
Format: biochemical, rat (male CR Wistar)
Method: [^3 H]-Serotonin Uptake in Rat Whole Brain and Hypothalamic Synaptosomes
A. Animals: Male CR Wistar rats (100-125 g).
1. Krebs-Henseleit Bicarbonate Buffer, pH 7.4 (KHBB):
Prior to use add to 200 ml, per assay:
Make a 4 liter batch, containing the following salts:
3. Sucrose solution: 0.32M sucrose containing 5 mM HEPES and 0.1 mM EDTA; pH to 7.3 using Tris base.
4. A 0.1 mM stock solution of serotonin creatinine SO4 is made up in 0.01N HCl. This is used to dilute the specific activity of the radiolabeled 5HT.
The final desired concentration of [^3 H]-5HT in the assay is 50 nM. The dilution factor is 0.8.
6. For most assays, a 0.5 mM stock solution of the test compound is made up initially in either 10 μl of glacial acetic acid, 100 μl DMSO or 10 μl of the recrystallization solvent, to which is added approximately 10 ml of distilled water. Compounds are initially screened in duplicate at 3 concentrations (10^-8, 10^-7 and 10^-6 M) made up in water.
43, 1114 (1984) and Dunkley, P. R., Jarvie, R. E., Heath, J. W., Kidd, G. J., Rostas, J. A. P. Brain Research 372, 115 (1986). Male Wistar rats are decapitated and the brain rapidly removed. […] The following procedures are performed on ice. Homogenization should be done with 4-5 up and down strokes at medium speeds (setting 4.5 to 5) to minimize synaptosome lysis.
Tubes are carefully removed, and the top layer and the top part of the middle (red) layer are discarded using a pasteur pipette. […] This is carefully removed, placed in a centrifuge tube, diluted with KHBB and spun at 21,000 g (13,000 rpm, Sorvall SS-34 rotor).
200 μl of the tissue suspension are added to each of 24 tubes (at a time) containing the 20 μl of vehicle or drug on ice. Three minutes later, 800 μl of KHBB containing [^3 H]-5HT are added, and the tubes are vortexed. […] Uptake is terminated by filtration through GF/B filter strips using a Brandel cell harvester (filter strips are presoaked in ice cold filtration buffer). Tubes are washed once with 5 ml of ice cold filtration buffer.
`CN1CCN(c2ccc3cnn(C)c3n2)CC1` [1-Methyl-6-(4-methyl-1-piperazinyl)-1H-pyrazolo[3,4-b]pyridine] gave an IC50 of 3.43 µM. In the case of `N#Cc1n[nH]c2nc(N3CCNCC3)ccc12` [6-(1-Piperazinyl)-1H-pyrazolo[3,4-b]pyridine-3-carbonitrile], the IC50 is reported as 0.696 µM. `NC(=O)c1n[nH]c2nc(N3CCNCC3)ccc12` [6-(1-Piperazinyl)-1H-pyrazolo[3,4-b]pyridine-3-carboxamide hydrochloride hydrate] showed an IC50 of 7.69 µM. With `CN1CCN(c2ccc3c(C#N)n[nH]c3n2)CC1` [6-(4-Methyl-1-piperazinyl)-1H-pyrazolo[3,4-b]pyridine-3-carbonitrile] the IC50 was 0.764 µM. Work on `CN1CCN(c2ccc3cn[nH]c3n2)CC1` [6-(4-Methyl-1-piperazinyl)-1H-pyrazolo[3,4-b]pyridine] yielded an IC50 of 8.26 µM. `N#Cc1n[nH]c2nc(N3CCCNCC3)ccc12` [6-(Hexahydro-1H-1,4-diazepin-1-yl)-1H-pyrazolo[3,4-b]pyridine-3-carbonitril] showed an IC50 of 0.349 µM.
